In patent US11306092B2, “Amino indole compounds useful as TLR inhibitors” (BRISTOL-MYERS SQUIBB COMPANY, priority 2017, dated 2022) one finds IC50 data, which are given here for 3 compounds.

Common to all, as to assay type: cell-based
One assay has as its target T1, human TLR8 (Homo sapiens, UniProt Q9NR97).
T1 construct: host or cells: HEK-Blue cells
T1 sequence (Q9NR97 27-1041): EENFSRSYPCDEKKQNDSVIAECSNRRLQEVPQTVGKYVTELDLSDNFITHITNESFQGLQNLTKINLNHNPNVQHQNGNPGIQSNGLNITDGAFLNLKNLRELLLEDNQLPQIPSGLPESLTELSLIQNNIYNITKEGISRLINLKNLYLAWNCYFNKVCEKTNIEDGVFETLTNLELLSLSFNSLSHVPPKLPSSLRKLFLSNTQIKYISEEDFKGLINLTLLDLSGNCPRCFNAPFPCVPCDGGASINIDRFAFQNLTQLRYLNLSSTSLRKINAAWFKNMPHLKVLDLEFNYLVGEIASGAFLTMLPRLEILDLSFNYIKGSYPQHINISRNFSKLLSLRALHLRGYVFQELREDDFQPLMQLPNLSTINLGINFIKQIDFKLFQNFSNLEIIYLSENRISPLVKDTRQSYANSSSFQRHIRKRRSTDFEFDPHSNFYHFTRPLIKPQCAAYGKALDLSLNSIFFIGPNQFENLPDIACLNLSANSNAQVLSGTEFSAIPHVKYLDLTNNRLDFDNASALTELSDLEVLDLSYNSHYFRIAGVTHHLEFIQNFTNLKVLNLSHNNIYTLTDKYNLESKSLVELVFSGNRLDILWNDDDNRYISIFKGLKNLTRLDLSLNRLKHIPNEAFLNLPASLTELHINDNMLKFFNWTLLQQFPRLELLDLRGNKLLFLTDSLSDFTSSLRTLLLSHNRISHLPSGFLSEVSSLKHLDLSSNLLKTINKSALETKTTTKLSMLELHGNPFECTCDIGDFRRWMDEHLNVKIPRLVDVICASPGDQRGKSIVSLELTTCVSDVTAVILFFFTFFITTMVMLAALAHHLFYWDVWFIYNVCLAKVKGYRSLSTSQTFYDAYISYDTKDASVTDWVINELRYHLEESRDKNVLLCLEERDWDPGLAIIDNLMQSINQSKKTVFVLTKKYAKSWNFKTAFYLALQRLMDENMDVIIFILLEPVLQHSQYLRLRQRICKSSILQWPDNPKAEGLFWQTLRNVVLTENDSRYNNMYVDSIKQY
The assay can be described thus: TLR8 inhibition reporter assay (HEK-Blue SEAP reporter). The conditions noted are these: HEK-Blue cells overexpressing human TLR8; R848 15.9 μM; 22 hour incubation. Summed up:
(§1)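 HEK-Blue cells overexpressing human TLR7, TLR8 or TLR9 carry a SEAP reporter driven by NF-κB/AP-1 sites. Compounds (0.05 nM–50 μM) were preincubated 30 min at room temperature, then cells were stimulated with gardiquimod 7.5 μM (TLR7), R848 15.9 μM (TLR8) or ODN2006 5 nM (TLR9) for 22 h at 37 °C.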
A general note: Reporter assays use an easily measured gene product as a stand-in for the process of interest.

For a further assay, the target named is T2, human TLR7 (Homo sapiens, UniProt Q9NYK1).
T2 construct: host or cells: HEK-Blue cells
T2 sequence (Q9NYK1 27-1049): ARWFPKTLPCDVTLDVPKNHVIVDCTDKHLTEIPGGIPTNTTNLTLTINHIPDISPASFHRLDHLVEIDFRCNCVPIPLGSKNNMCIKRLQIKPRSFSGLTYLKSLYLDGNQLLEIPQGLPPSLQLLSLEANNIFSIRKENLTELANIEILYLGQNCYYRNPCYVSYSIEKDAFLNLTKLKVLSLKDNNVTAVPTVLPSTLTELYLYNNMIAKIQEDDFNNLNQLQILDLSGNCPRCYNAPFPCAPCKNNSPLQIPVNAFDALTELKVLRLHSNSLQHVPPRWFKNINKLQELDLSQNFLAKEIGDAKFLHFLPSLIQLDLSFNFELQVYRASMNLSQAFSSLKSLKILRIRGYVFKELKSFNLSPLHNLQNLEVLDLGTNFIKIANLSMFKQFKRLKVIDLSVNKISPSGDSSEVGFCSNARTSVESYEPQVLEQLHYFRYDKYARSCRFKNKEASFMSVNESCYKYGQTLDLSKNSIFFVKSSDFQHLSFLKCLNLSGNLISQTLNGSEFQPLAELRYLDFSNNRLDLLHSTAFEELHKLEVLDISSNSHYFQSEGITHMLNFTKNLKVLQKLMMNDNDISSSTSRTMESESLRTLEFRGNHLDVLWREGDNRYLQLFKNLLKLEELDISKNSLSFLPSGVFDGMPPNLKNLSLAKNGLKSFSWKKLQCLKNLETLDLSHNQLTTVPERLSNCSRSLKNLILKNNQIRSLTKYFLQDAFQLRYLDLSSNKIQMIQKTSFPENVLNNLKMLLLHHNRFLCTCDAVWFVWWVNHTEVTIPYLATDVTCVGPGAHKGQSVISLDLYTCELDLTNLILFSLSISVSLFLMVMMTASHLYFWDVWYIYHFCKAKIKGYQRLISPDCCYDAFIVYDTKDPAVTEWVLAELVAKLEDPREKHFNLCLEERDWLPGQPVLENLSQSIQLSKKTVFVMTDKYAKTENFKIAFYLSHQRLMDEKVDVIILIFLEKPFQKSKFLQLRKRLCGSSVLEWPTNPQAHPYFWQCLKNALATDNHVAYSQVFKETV
The experiment in a line: TLR7 inhibition reporter assay (HEK-Blue SEAP reporter). Conditions: HEK-Blue cells overexpressing human TLR7; gardiquimod 7.5 μM; 22 hour incubation. Summed up: as §1

Another assay has as its target T3, human TLR9 (Homo sapiens, UniProt Q9NR96).
T3 construct: host or cells: HEK-Blue cells
T3 sequence (Q9NR96 26-1032): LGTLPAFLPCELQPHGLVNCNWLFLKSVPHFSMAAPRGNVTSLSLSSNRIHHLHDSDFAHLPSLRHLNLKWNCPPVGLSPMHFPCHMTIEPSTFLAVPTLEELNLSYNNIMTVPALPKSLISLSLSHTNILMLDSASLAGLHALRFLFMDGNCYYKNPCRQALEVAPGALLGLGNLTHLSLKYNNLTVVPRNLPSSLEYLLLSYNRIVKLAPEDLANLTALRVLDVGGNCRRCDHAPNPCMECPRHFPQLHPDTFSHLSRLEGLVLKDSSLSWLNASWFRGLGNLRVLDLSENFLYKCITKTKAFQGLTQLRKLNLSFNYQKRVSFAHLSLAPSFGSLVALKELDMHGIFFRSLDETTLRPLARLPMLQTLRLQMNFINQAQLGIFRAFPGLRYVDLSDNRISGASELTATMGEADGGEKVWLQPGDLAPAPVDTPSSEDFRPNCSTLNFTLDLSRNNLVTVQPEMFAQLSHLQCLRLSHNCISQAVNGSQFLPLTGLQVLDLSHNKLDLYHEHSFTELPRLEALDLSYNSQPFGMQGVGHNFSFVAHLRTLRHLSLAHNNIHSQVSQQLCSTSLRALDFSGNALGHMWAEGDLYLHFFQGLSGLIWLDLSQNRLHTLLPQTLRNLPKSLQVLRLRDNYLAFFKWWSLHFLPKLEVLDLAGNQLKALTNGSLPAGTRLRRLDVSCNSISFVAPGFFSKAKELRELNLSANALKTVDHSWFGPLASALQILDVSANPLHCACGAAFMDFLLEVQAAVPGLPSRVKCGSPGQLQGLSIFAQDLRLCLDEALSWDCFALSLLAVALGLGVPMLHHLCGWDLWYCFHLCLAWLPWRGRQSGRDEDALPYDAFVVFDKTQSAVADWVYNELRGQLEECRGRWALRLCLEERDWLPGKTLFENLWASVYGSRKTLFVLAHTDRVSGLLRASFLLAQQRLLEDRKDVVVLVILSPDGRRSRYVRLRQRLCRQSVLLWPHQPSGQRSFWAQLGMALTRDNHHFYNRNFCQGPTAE
The assay can be described thus: TLR9 inhibition reporter assay (HEK-Blue SEAP reporter). Conditions: HEK-Blue cells overexpressing human TLR9; ODN2006 5 nM; 22 hour incubation. The method in brief:
as §1

In general, IC50 refers to the concentration needed to halve the response being measured. A higher IC50 goes with lower potency. As for `CCN1CCC(OC2CCN(c3ccc4[nH]c(-c5ccc(OC)c(OC)c5)c(C(C)C)c4c3)CC2)CC1` [Example 190, 2-(3,4-dimethoxyphenyl)-5-(4-((1-ethylpiperidin-4-yl)oxy)piperidin-1-yl)-3-isopropyl-1H-indole], the IC50 on human TLR8 was determined as 0.035 µM; against human TLR7, 0.033 µM; against human TLR9, 0.667 µM.
For `CCc1c(-c2ccc(OC)c(OC)c2)[nH]c2ccc(N3CCC(OC4CCN(C(C)C)CC4)CC3)cc12` [Example 191, 2-(3,4-dimethoxyphenyl)-3-ethyl-5-(4-((1-isopropylpiperidin-4-yl)oxy)piperidin-1-yl)-1H-indole], the IC50 on human TLR8 came to 0.066 µM; against human TLR7, 0.087 µM; against human TLR9, 0.836 µM.
Consider `COc1ccc(-c2[nH]c3ccc(N4CCC(NC5CCN(C(C)C)CC5)CC4)cc3c2C(C)C)cc1OC` [Example 192, 1-(2-(3,4-dimethoxyphenyl)-3-isopropyl-1H-indol-5-yl)-N-(1-isopropylpiperidin-4-yl)piperidin-4-amine], for which the IC50 on human TLR8 came out at 0.0077 µM; against human TLR7 it was 0.036 µM; on human TLR9 it was 0.322 µM.
